Converted amounts (≈) assume the structure as drawn. Where two headings read alike, the source gives them in different places.
Tests used:
[1] = test system: Staphylococcus aureus ATCC 6538 P; test: Bacteriostatic power in solid medium (MIC), aerobic Gram positive; assay type: cell-based; details: for MIC: Staphylococcus aureus
[2] = test system: Staphylococcus aureus LRP 14; test: as above; assay type: cell-based; details: for MIC: Staphylococcus aureus
[3] = test system: Streptococcus faecalis LRP 7; test: as above; assay type: cell-based; details: for MIC: Enterococcus faecalis
[4] = test system: Streptococcus faecalis sub. zymogenes ATCC 12958; test: as above; assay type: cell-based; details: for MIC: Enterococcus faecalis
[5] = test system: Streptococcus pneumonieae ATCC 6303; test: as above; assay type: cell-based; details: for MIC: Streptococcus
[6] = test system: Streptococcus pneumonieae LRP 52; test: as above; assay type: cell-based; details: for MIC: Streptococcus
[7] = test system: Streptococcus pneumonieae LRP 53; test: as above; assay type: cell-based; details: for MIC: Streptococcus
[8] = test system: Streptococcus pyogenes ATCC 8668; test: as above; assay type: cell-based; details: for MIC: Streptococcus pyogenes
[9] = test system: Streptococcus pyogenes LRP 197; test: as above; assay type: cell-based; details: for MIC: Streptococcus pyogenes
[10] = test system: Corynebacterium diphteriae LRP 24; test: as above; assay type: cell-based; details: for MIC: Corynebacterium
[11] = test system: Micrococcus luteus ATCC 9341; test: as above; assay type: cell-based; details: for MIC: Micrococcus luteus
[12] = test system: Micrococcus luteus ATCC 15957; test: as above; assay type: cell-based; details: for MIC: Micrococcus luteus, ATCC15957, LRP 193, Erythromicina resistant, read-out: minimum inhibiting concentration
Excerpt: (§1) Turning now to an examination of the novel macrolide antibiotics produced according to the present invention, they are all characterized by a bacteriostatic spectrum like that of erythromycin and by the stability in acidic environment, whereby their direct administration by oral route is possible, without having recourse to esters and/or salts, showing the afore mentioned disadvantages and problems. The above is confirmed by the following Table 1, wherein the MIC values are reported, indicating the bacteriostatic power, and by the Table 2, giving the stability values in acidic environment. Without having to be construed in a limiting sense, it seems plausible that the greater stability of the macrolide. antibiotics of the present invention can be attributed to the presence in the molecule of the antibiotic of the neutral sugar oleandrose (J. Antib. (1976) XXIX (7), 728).
(§2) Bacteriostatic power in solid medium of Erythromycin A, Erythromycin B,
(§3) aerobic and anaerobic bacteria, Gram positive and Gram negative minimum
(§4) inhibiting concentrations expressed in mcg/ml.

[13] = test system: Staphylococcus aureus ATCC 14154; test: as above; assay type: cell-based; details: for MIC: Staphylococcus aureus, ATCC14154, LRP 78, Erythromicina resistant, read-out: minimum inhibiting concentration
Excerpt: as §1, §2, §3, §4

Bacillus subtilis LRP 25 = test: as above; assay type: cell-based; details: for MIC: Bacillus subtilis
[14] = test system: Haemophilus influenzae ATCC 19418; test: Bacteriostatic power in solid medium (MIC), aerobic Gram negative; assay type: cell-based; details: for MIC: Haemophilus influenzae, ATCC19418, LRP 213, read-out: minimum inhibiting concentration
Excerpt: as §1, §2, §3, §4

[15] = test system: Pseudomonas aeruginosa LRP 9; test: as above; assay type: cell-based; details: for MIC: Pseudomonas aeruginosa, LRP9, read-out: minimum inhibiting concentration
Excerpt: as §1, §2, §3, §4

Shigella sonnei LRP 5 = test: as above; assay type: cell-based; details: for MIC: Shigella sonnei, LRP5, read-out: minimum inhibiting concentration
Excerpt: as §1, §2, §3, §4

[16] = test system: Neisseria Gonorrhoeae ATCC 19424; test: as above; assay type: cell-based; details: for MIC: Neisseria gonorrhoeae
Escherichia coli LRP 50 = test: as above; assay type: cell-based; details: solid medium, LRP 50; for MIC: Escherichia coli, LRP50, read-out: minimum inhibiting concentration
[17] = test system: Klebsiella pneumoniae LRP 54; test: as above; assay type: cell-based; details: for MIC: Klebsiella pneumoniae
[18] = test system: Proteus vulgaris ATCC 6380; test: as above; assay type: cell-based; details: for MIC: Proteus vulgaris
Salmonella typhi LRP 8 = test: as above; assay type: cell-based; details: for MIC: Salmonella enterica, TYPHI, read-out: minimum inhibiting concentration
[19] = test system: Acholeplasma laidlawii ATCC 23206; test: as above; assay type: cell-based; details: for MIC: Acholeplasma laidlawii
[20] = test system: Mycoplasma hominis I ATCC 14097; test: as above; assay type: cell-based; details: for MIC: Metamycoplasma hominis
[21] = test system: Clostridium perfrigens ATCC 3624; test: Bacteriostatic power in solid medium (MIC), anaerobic; assay type: cell-based; details: for MIC: Clostridium, ATCC3624, LRP 206, read-out: minimum inhibiting concentration
[22] = test system: Bacteroides fragilis ATCC 23745; test: as above; assay type: cell-based; details: for MIC: Bacteroides fragilis
[23] = test system: Fusobacterium necrophorum ATCC 27852; test: as above; assay type: cell-based; details: for MIC: Fusobacterium necrophorum, ATCC27852, read-out: minimum inhibiting concentration
physchem = assay type: physicochemical; details: for half-life: acidic environment
Excerpt: t 1/2 represents the half life time of the antibiotics as determined by
high pressure liquid phase chromatography (HPLC).

## 3-O-oleandrosyl-5-O-desosaminyl-(8S)-8,19-epoxyerythronolide B [P 15153]
[1]; solid medium, LRP 39
  minimum inhibiting concentration: 0.195 µg/mL
[2]; solid medium, LRP 14, Penycilline resistant
  minimum inhibiting concentration: 0.195 µg/mL
[3]; solid medium, LRP 7
  minimum inhibiting concentration: 0.78 µg/mL
[4]; solid medium, LRP 61
  minimum inhibiting concentration: 0.39 µg/mL
[5]; solid medium, LRP 35
  minimum inhibiting concentration: 0.049 µg/mL
[6]; solid medium, LRP 52
  minimum inhibiting concentration: 0.049 µg/mL
[7]; solid medium, LRP 53
  minimum inhibiting concentration: 0.024 µg/mL
[8]; solid medium, LRP 34
  minimum inhibiting concentration: 0.049 µg/mL
[9]; solid medium, LRP 197
  minimum inhibiting concentration: 0.049 µg/mL
[10]; solid medium, LRP 24
  minimum inhibiting concentration: 0.024 µg/mL
[11]; solid medium, LRP 6
  minimum inhibiting concentration: 0.024 µg/mL
[12]; LRP 193, Erythromicina resistant
  minimum inhibiting concentration: > 25 µg/mL
[13]; LRP 78, Erythromicina resistant
  minimum inhibiting concentration: > 25 µg/mL
Bacillus subtilis LRP 25; solid medium, LRP 25
  minimum inhibiting concentration: 0.195 µg/mL
[14]; LRP 213
  minimum inhibiting concentration: 12.5 µg/mL
[15]
  minimum inhibiting concentration: > 25 µg/mL
Shigella sonnei LRP 5
  minimum inhibiting concentration: > 25 µg/mL
[16]; solid medium, LRP 214
  minimum inhibiting concentration: 0.195 µg/mL
Escherichia coli LRP 50
  minimum inhibiting concentration: 25 µg/mL
[17]; solid medium, LRP 54
  minimum inhibiting concentration: > 25 µg/mL
[18]; solid medium, LRP 13
  minimum inhibiting concentration: > 25 µg/mL
Salmonella typhi LRP 8; solid medium, LRP 8
  minimum inhibiting concentration: 25 µg/mL
[19]; solid medium, LRP 204
  minimum inhibiting concentration: 1.56 µg/mL
[20]; solid medium, LRP 211
  minimum inhibiting concentration: > 25 µg/mL
[21]; LRP 206
  minimum inhibiting concentration: 3.12 µg/mL
[22]; solid medium, LRP 205, anaerobic
  minimum inhibiting concentration: 6.25 µg/mL
[23]; solid medium, LRP 210, anaerobic
  minimum inhibiting concentration: 25 µg/mL
physchem; pH 2.0, 25° C.
  t 1/2: 65 h

## CC[C@H]1OC(=O)[C@H](C)[C@@H](O[C@H]2C[C@@](C)(OC)[C@@H](O)[C@H](C)O2)[C@H](C)[C@@H](O[C@@H]2O[C@H](C)C[C@H](N(C)C)[C@H]2O)[C@](C)(O)C[C@@H](C)C(=O)[C@H](C)[C@@H](O)[C@]1(C)O [Erythromycin A, reference compound]
[1]; ATCC6538, read-out: minimum inhibiting concentration
  MIC: 0.049 µg/mL (≈ 0.0668 µM)
[2]; LRP14, read-out: minimum inhibiting concentration
  MIC: 0.049 µg/mL (≈ 0.0668 µM)
[3]; LRP7, read-out: minimum inhibiting concentration
  MIC: 0.097 µg/mL (≈ 0.132 µM)
[4]; ATCC12958, read-out: minimum inhibiting concentration
  MIC: 0.195 µg/mL (≈ 0.266 µM)
[5]; ATCC6303, read-out: minimum inhibiting concentration
  MIC: 0.012 µg/mL (≈ 0.0164 µM)
[6]; LRP52, read-out: minimum inhibiting concentration
  MIC: 0.012 µg/mL (≈ 0.0164 µM)
[7]; LRP53, read-out: minimum inhibiting concentration
  MIC: 0.012 µg/mL (≈ 0.0164 µM)
[8]; ATCC8668, read-out: minimum inhibiting concentration
  MIC: 0.012 µg/mL (≈ 0.0164 µM)
[9]; LRP197, read-out: minimum inhibiting concentration
  MIC: 0.012 µg/mL (≈ 0.0164 µM)
[10]; LRP24, read-out: minimum inhibiting concentration
  MIC: 6 ng/mL (≈ 0.00818 µM)
[11]; ATCC9341, read-out: minimum inhibiting concentration
  MIC: 6 ng/mL (≈ 0.00818 µM)
[12]
  MIC: > 25 µg/mL
[13]
  MIC: > 25 µg/mL
Bacillus subtilis LRP 25; LRP25, read-out: minimum inhibiting concentration
  MIC: 0.049 µg/mL (≈ 0.0668 µM)
[14]
  MIC: 3.12 µg/mL (≈ 4.25 µM)
[15]
  MIC: > 25 µg/mL
Shigella sonnei LRP 5
  MIC: 12.5 µg/mL (≈ 17 µM)
[16]; ATCC19424, read-out: minimum inhibiting concentration
  MIC: 0.049 µg/mL (≈ 0.0668 µM)
Escherichia coli LRP 50
  MIC: 6.25 µg/mL (≈ 8.52 µM)
[17]; LRP54, read-out: minimum inhibiting concentration
  MIC: 25 µg/mL (≈ 34.1 µM)
[18]; ATCC6380, read-out: minimum inhibiting concentration
  MIC: > 25 µg/mL
Salmonella typhi LRP 8
  MIC: 12.5 µg/mL (≈ 17 µM)
[19]; ATCC23206, read-out: minimum inhibiting concentration
  MIC: 0.097 µg/mL (≈ 0.132 µM)
[20]; ATCC14097, read-out: minimum inhibiting concentration
  MIC: > 25 µg/mL
[21]
  MIC: 1.56 µg/mL (≈ 2.13 µM)
[22]; ATCC23745, read-out: minimum inhibiting concentration
  MIC: 0.195 µg/mL (≈ 0.266 µM)
[23]
  MIC: 1.56 µg/mL (≈ 2.13 µM)
physchem; pH 2
  half-life: 2 min
physchem; pH 3
  half-life: 6 min

## CC[C@H]1OC(=O)[C@H](C)[C@@H](O[C@H]2C[C@@](C)(OC)[C@@H](O)[C@H](C)O2)[C@H](C)[C@@H](O[C@@H]2O[C@H](C)C[C@H](N(C)C)[C@H]2O)[C@](C)(O)C[C@@H](C)C(=O)[C@H](C)[C@@H](O)[C@H]1C [Erythromycin B, reference compound]
[1]; ATCC6538, solid medium, LRP 39, read-out: minimum inhibiting concentration
  MIC: 0.097 µg/mL (≈ 0.135 µM)
[2]; LRP14, solid medium, LRP 14, Penycilline resistant, read-out: minimum inhibiting concentration
  MIC: 0.195 µg/mL (≈ 0.272 µM)
[3]; LRP7, solid medium, LRP 7, read-out: minimum inhibiting concentration
  MIC: 0.195 µg/mL (≈ 0.272 µM)
[4]; ATCC12958, solid medium, LRP 61, read-out: minimum inhibiting concentration
  MIC: 0.195 µg/mL (≈ 0.272 µM)
[5]; ATCC6303, solid medium, LRP 35, read-out: minimum inhibiting concentration
  MIC: 0.024 µg/mL (≈ 0.0334 µM)
[6]; LRP52, solid medium, LRP 52, read-out: minimum inhibiting concentration
  MIC: 0.024 µg/mL (≈ 0.0334 µM)
[7]; LRP53, solid medium, LRP 53, read-out: minimum inhibiting concentration
  MIC: 0.024 µg/mL (≈ 0.0334 µM)
[8]; ATCC8668, solid medium, LRP 34, read-out: minimum inhibiting concentration
  MIC: 0.024 µg/mL (≈ 0.0334 µM)
[9]; LRP197, solid medium, LRP 197, read-out: minimum inhibiting concentration
  MIC: 0.024 µg/mL (≈ 0.0334 µM)
[10]; LRP24, solid medium, LRP 24, read-out: minimum inhibiting concentration
  MIC: 12 ng/mL (≈ 0.0167 µM)
[11]; ATCC9341, solid medium, LRP 6, read-out: minimum inhibiting concentration
  MIC: 6 ng/mL (≈ 0.00836 µM)
[12]
  MIC: > 25 µg/mL
[13]
  MIC: > 25 µg/mL
Bacillus subtilis LRP 25; LRP25, solid medium, LRP 25, read-out: minimum inhibiting concentration
  MIC: 0.049 µg/mL (≈ 0.0683 µM)
[14]
  MIC: 6.25 µg/mL (≈ 8.71 µM)
[15]
  MIC: > 25 µg/mL
Shigella sonnei LRP 5
  MIC: > 25 µg/mL
[16]; ATCC19424, solid medium, LRP 214, read-out: minimum inhibiting concentration
  MIC: 0.097 µg/mL (≈ 0.135 µM)
Escherichia coli LRP 50
  MIC: 25 µg/mL (≈ 34.8 µM)
[17]; LRP54, solid medium, LRP 54, read-out: minimum inhibiting concentration
  MIC: 25 µg/mL (≈ 34.8 µM)
[18]; ATCC6380, solid medium, LRP 13, read-out: minimum inhibiting concentration
  MIC: > 25 µg/mL
Salmonella typhi LRP 8
  MIC: 25 µg/mL (≈ 34.8 µM)
[19]; ATCC23206, solid medium, LRP 204, read-out: minimum inhibiting concentration
  MIC: 0.097 µg/mL (≈ 0.135 µM)
[20]; ATCC14097, solid medium, LRP 211, read-out: minimum inhibiting concentration
  MIC: > 25 µg/mL
[21]
  MIC: 1.56 µg/mL (≈ 2.17 µM)
[22]; ATCC23745, solid medium, LRP 205, anaerobic, read-out: minimum inhibiting concentration
  MIC: 0.195 µg/mL (≈ 0.272 µM)
[23]
  MIC: 6.25 µg/mL (≈ 8.71 µM)

From US4560662A, “Streptomyces antibioticus ATCC 31771 and process for obtaining same” (priority 1981, dated 1985)
